Results as given in US7041785B1, “B1-bradykinin receptor antagonists and use thereof” (Université de Sherbrooke, priority 1996, dated 2006).

Key:
[1] = test system: streptozotocin-induced diabetic mice; conditions: mouse, in vivo
Experimental: Male C57BL/Ks mdb mice were injected with streptozotocin (40 mg/kg) for 5 consecutive days. […] Treatment with antagonists was started 3 days after STZ and lasted for 10 days. Plasma glucose was determined by the glucose oxidase method, and 13 days urinary samples were assayed for proteins, nitrites and kallikreins.
Male C57BL/Ksmdb mice, 3 month old were provided by National Institute of Genetic, Buenos Aires. The animals were housed at a constant room temperature, with a 12 h light-dark cycle.
Blood (50–60 ul) was collected from the tail vein of non fasting animals in heparinized capillary tubes. Blood samples were taken one day before starting the STZ injection and at the day 13, just before sacrifice. Blood samples were centrifuged and the plasma immediately diluted into the appropriate buffer. Plasma glucose was determined by a glucose oxidase method (the kit was obtained from Wiener, Argentina). […] Urinary volume was determined gravimetrically and urinary samples were assayed for proteins^45, nitrites^40 and kallikrein^47.
Streptozotocin was purchased from the Sigma Chem Co., St. Louis, Mo. […] The paranitroanilide (pNA) released by enzymatic action on the substrate was measured calorimetrically to determine kallikrein activity
All data were expressed as mean=S.E. Analysis of Variance (ANOVA) was performed to evaluate differences among the groups. p<0.05 was considered as significant.

BK-B1 receptor = biological target: T1, BK-B1 receptor (Rattus norvegicus, UniProt P97583); assay: Isometric contraction of portal vein segments from STZ-induced diabetic rats; assay type: cell-based; conditions: P<0.001
T1 construct: Segments of the portal vein (a known preparation for BK studies) from these rats were mounted in organ baths; from tissue; host or cells: rat portal vein segments (STZ-diabetic and normal rats)
T1 sequence (P97583 1-337): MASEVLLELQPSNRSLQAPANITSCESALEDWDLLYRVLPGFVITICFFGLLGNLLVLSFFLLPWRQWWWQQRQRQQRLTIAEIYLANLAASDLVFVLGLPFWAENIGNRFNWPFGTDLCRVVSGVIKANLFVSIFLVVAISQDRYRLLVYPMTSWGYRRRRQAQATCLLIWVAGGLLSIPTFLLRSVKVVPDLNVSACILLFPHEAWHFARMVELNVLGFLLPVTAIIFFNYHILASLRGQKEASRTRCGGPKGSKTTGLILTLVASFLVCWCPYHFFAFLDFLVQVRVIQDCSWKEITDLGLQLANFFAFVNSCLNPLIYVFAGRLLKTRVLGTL
From the text: Capillary permeability is known to be selectively augmented in the streptozotocin (STZ) diabetic rat model^49. The vascular BK receptors in the STZ-induced diabetic rat was examined. Segments of the portal vein (a known preparation for BK studies) from these rats were mounted in organ baths for isometric contraction studies. The response to desArg^9BK, a specific BK–B1 receptor agonist, was enhanced by 118% in the diabetic tissue, compared to normal portal veins (0.48 vs 0.22g: P<0.001). […] HOE140, the BK–B2 receptor antagonist, had no effect on the diabetic portal vein abnormality. Evans blue (EB: 20 mg/kg), a marker of albumin extravasation, was injected to unanesthetized diabetic rats. […] Therefore, it was concluded that post-capillary hypercontractility to BK (via its B1 receptor) forces EB extravasation, and likely contributed to the diabetic vasculopathy.

[2] = biological target: T2, angiotensin-converting enzyme (ACE) from rabbit lungs (Oryctolagus cuniculus, UniProt P12822); conditions: cited from earlier work
T2 sequence (P12822 34-1310): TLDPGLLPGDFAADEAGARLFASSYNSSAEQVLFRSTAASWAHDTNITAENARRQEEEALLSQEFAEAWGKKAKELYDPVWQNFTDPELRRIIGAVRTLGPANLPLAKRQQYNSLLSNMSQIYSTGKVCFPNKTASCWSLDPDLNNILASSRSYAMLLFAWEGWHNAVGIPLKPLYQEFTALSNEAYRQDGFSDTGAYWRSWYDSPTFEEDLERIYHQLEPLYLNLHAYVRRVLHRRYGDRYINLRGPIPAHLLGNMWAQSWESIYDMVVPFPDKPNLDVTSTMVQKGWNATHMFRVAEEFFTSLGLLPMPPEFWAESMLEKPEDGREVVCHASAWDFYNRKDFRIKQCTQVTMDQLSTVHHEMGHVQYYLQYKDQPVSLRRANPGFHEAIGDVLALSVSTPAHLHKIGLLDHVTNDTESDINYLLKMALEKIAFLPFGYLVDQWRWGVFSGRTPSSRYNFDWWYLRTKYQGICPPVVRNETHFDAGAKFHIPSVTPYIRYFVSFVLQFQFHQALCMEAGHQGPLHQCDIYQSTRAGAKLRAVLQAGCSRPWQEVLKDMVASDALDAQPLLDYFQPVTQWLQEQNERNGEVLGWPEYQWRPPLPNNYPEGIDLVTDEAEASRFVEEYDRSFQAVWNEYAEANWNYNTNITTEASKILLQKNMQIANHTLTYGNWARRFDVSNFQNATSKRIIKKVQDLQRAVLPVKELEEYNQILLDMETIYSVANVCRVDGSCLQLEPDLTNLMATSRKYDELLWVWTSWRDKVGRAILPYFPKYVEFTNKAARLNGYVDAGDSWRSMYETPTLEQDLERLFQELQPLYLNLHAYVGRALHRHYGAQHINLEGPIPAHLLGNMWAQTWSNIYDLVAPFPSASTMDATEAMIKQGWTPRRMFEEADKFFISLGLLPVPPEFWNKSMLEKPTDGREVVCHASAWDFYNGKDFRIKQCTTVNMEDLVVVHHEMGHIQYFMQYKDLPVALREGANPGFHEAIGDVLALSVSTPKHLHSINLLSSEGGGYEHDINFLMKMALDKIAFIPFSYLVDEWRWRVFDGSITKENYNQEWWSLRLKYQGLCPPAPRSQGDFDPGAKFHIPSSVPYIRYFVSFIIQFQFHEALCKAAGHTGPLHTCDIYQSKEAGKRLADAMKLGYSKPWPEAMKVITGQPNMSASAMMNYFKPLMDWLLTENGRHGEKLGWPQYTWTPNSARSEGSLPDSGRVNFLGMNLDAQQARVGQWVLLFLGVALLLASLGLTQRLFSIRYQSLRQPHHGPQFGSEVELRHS

| SMILES | Body weight [1] | Enhancement of response in diabetic tissue compared to normal portal veins (BK-B1 receptor) [%] | Metabolism of naturally-occurring kinins by ACE [2] |
| --- | --- | --- | --- |
| NC(N)=NCCC[C@@H](N)C(=O)N[C@@H](CCCN=C(N)N)C(=O)N1CCC[C@H]1C(=O)N1C[C@H](O)C[C@H]1C(=O)NCC(=O)N[C@@H](Cc1cccs1)C(=O)N[C@@H](CO)C(=O)N1Cc2ccccc2C[C@@H]1C(=O)N1[C@H](C(=O)N[C@@H](CCCN=C(N)N)C(=O)O)C[C@@H]2CCCC[C@@H]21 [HOE140, D-Arg(Hyp^3, Thi^5, D-Tic^7, Oic^8)BK] | No changes of body weight | – | – |
| N=C(N)NCCC[C@H](N)C(=O)N1CCC[C@H]1C(=O)N1CCC[C@H]1C(=O)NCC(=O)N[C@@H](Cc1ccccc1)C(=O)N[C@@H](CO)C(=O)N1CCC[C@H]1C(=O)N[C@@H](Cc1ccccc1)C(=O)O [desArg^9BK, Arg-Pro-Pro-G1y-Phe-Ser-Pro-Phe] | – | 118 | fully metabolised |
